From ChEMBL document CHEMBL3879896 come the findings set out here.

The target in series [1] is T1, Enoyl-[acyl-carrier-protein] reductase [NADH] (Mycobacterium tuberculosis) (UniProt P9WGR1).
T1 sequence (whole entry): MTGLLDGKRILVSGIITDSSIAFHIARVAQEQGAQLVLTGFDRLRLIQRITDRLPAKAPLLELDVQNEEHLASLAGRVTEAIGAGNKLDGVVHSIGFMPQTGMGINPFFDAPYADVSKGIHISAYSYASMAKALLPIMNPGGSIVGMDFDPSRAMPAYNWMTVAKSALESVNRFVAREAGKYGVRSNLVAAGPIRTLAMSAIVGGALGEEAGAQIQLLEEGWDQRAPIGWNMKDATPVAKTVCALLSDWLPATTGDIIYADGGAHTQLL
The experiment in a line: Inhibition of Mycobacterium tuberculosis InhA using octenoyl-CoA as substrate assessed as decrease in NADH consumption at 40 uM measured for 10 mins relative to control.

The nature of series [2]: Cytotoxicity against human kidney cells. The series is classed as cell-based.
A short description of series [3]: Cytotoxicity against human lung cells. It counts as cell-based.
A short description of series [4]: Cytotoxicity against mouse embryonic stem cells. The series is classed as cell-based. The conditions noted are these: embryonic stem cell.

`O=C(c1ccc2[nH]ccc2c1)N1CCc2ccccc2C1`: the inhibition in series [1] worked out at 86%.
With `O=C(c1ccc2[nH]ccc2c1)N1CCN(c2ccc(F)cc2)CC1`, the inhibition in series [1] was found to be 53%.
Still for that read-out and setting: to `FC(F)(F)c1ccnc(-n2cc(-c3cnc4ccccc4n3)cn2)n1` belongs 36%.
On the same count and under the same terms, to `O=C(c1ccc2[nH]ccc2c1)N1CCN(c2ccccc2)CC1` belongs 73%.
The same measure, in the same setting: to `O=C(Cc1ccccc1F)NCCc1cccc(Cl)c1` belongs 84%; to `O=C(c1ccc2[nH]ccc2c1)N1CCN(Cc2ccc3c(c2)OCO3)CC1`, 51%.
Regarding `O=C(c1ccc2[nH]ccc2c1)N1CCN(c2ccccn2)CC1`, in series [1], the inhibition is 36%.
`FC(F)(F)c1ccnc(-n2cc(-c3ccc(Cl)cc3)cn2)n1`: the inhibition in series [1] was 8%.
Regarding `O=C(c1ccc(-c2ccccc2)cc1)N1CCN(Cc2ccccc2)CC1`, the inhibition in series [1] is 27%.
Turning to `FC(F)(F)c1ccnc(-n2cc(-c3cccnc3)cn2)n1`, the inhibition in series [1] was determined as 36%.
As to `CCCC(=O)C1(c2ccccc2)CCN(C(=O)c2ccc3[nH]ccc3c2)CC1`, the results for the Activity in series [2], in series [3] and in series [4] were 23 to 48 µM, 33 to 50 µM and 46 to 50 µM, respectively.
As to `O=C(c1ccc2[nH]ccc2c1)N1CCN(Cc2ccccc2)CC1`, the inhibition in series [1] amounted to 62%.
Take `CN(Cc1ccco1)C(=O)c1ccc(-c2ccccc2)cc1`: the inhibition in series [1] is 29%.
In the case of `FC(F)(F)c1ccnc(-n2cc(-c3ccc4ccccc4n3)cn2)n1`, the inhibition in series [1] is 16%.
With `CC1CN(C(=O)c2ccc3[nH]ccc3c2)CC(C)O1` (stereo unspecified), the inhibition in series [1] was 47%.
On to `FC(F)(F)c1ccnc(-n2cc(-c3nc4ccccc4[nH]3)cn2)n1`, for which the inhibition in series [1] is 36%.
As to `FC(F)(F)c1ccnc(-n2cc(-c3ccncn3)cn2)n1`, the inhibition in series [1] amounted to 36%.
On to `O=C(Cc1ccccc1F)NCCC(c1ccccc1)c1ccccc1`, for which, in series [1], the inhibition was determined as 63%.
The same measure, in the same setting: to `CN(CCc1ccccc1)C(=O)c1ccc(-c2ccccc2)cc1` belongs 32%; to `CN(Cc1ccccc1)C(=O)c1ccc(-c2ccccc2)cc1`, 44%.
Same read-out and setting: then `COc1ccccc1N1CCN(C(=O)c2ccc3[nH]ccc3c2)CC1`, with 78%; and `O=C(c1ccc(-c2ccccc2)cc1)N1CCc2ccccc2C1`, with 27%; and `O=C(CCCc1c[nH]c2ccccc12)Nc1ccc(N2CCCC2)cc1`, with 28%.
Still for that read-out and setting: then `COc1ccc(CCNC(=O)Cc2ccccc2F)cc1`, with 63%.
Regarding `O=C(Nc1ccc2ccccc2n1)c1ccc2[nH]ccc2c1`, the inhibition in series [1] worked out at 16%.
`O=C(Cc1ccccc1F)NCc1cccc(Cl)c1`: the inhibition in series [1] was found to be 75%.
On to `O=[N+]([O-])c1cc(Cl)ccc1-c1cnn(-c2nccc(C(F)(F)F)n2)c1`, for which the inhibition in series [1] stood at 82%.
On the same count and under the same terms, then `O=C(Cc1ccccc1F)NCCc1c[nH]c2ccccc12`, with 47%; and `Cc1c(C)c(C)c(C(=O)C2CCN(C(=O)c3ccc4[nH]ccc4c3)CC2)c(C)c1C`, with 78%.
Take `CC(C)=CCC/C(C)=C/CNC(=O)CCc1c[nH]c2ccccc12`: the Activity in series [2] is 41 to 62 µM; in series [3], 11 to 48 µM; in series [4], 11 to 90 µM. For the same compound, the inhibition in series [1] was found to be 73%.
Turning to `O=C(Cc1ccccc1F)NCCC1=CCCCC1`, in series [1], the inhibition stood at 56%.
Still for that read-out and setting: then `FC(F)(F)c1ccnc(-n2cc(-c3ccnc4ccccc34)cn2)n1`, with 9%; and `CC(C)=CCC/C(C)=C/CNC(=O)CCCc1c[nH]c2ccccc12`, with 51%.
Still for that read-out and setting: then `COc1cc(CCNC(=O)CCCc2c[nH]c3ccccc23)cc(OC)c1`, with 21%.
As for `COc1ccc(-c2cnn(-c3nccc(C(F)(F)F)n3)c2)cc1`, in series [1], the inhibition worked out at 4%.
As to `O=C(Cc1ccccc1F)NCCO`, the inhibition in series [1] stood at 34%.
In the case of `O=C(c1ccc2[nH]ccc2c1)N1CCN(C2c3ccccc3-c3ccccc32)CC1`, the Activity in series [2] was 35 to 44 µM; in series [3] it was 24 to 48 µM; in series [4], 46 to 52 µM.
Turning to `COc1ccc([N+](=O)[O-])c(-c2cnn(-c3nccc(C(F)(F)F)n3)c2)c1`, the inhibition in series [1] is 17%.
As to `CS(=O)(=O)c1ccc(-c2cnn(-c3nccc(C(F)(F)F)n3)c2)c([N+](=O)[O-])c1`, the inhibition in series [1] amounted to 10%.
`O=C(c1cccnc1)c1ccc2[nH]ccc2c1`: the inhibition in series [1] is 36%.
Take `CC(C)C1C2CCC(NC(=O)CCCc3c[nH]c4ccccc34)C1C2` (stereo unspecified): the inhibition in series [1] stood at 34%.
In the case of `COc1cc2c(cc1OC)CN(C(=O)c1ccc3[nH]ccc3c1)CC2`, in series [1], the inhibition worked out at 86%.
Same read-out and setting: then `O=C(c1ccc(F)cc1)C1CCN(C(=O)c2ccc3[nH]ccc3c2)CC1`, with 84%; and `O=[N+]([O-])c1ccccc1-c1cnn(-c2nccc(C(F)(F)F)n2)c1`, with 14%.
On to `O=C(c1ccc2[nH]ccc2c1)N1CCN(C(c2ccccc2)c2ccccc2)CC1`, for which the inhibition in series [1] stood at 106%.
Still for that read-out and setting: then `CC(C)C1C2CCC(NC(=O)CCc3c[nH]c4ccccc34)C1C2` (stereo unspecified), with 28%.
Turning to `FC(F)(F)c1ccnc(-n2cc(-c3cnccn3)cn2)n1`, the inhibition in series [1] amounted to 9%.
For the compound `O=C(CCCc1c[nH]c2ccccc12)NCc1ccc2c(c1)OCO2`, in series [1], the inhibition came to 37%.
Take `O=C(Cc1ccccc1F)NCCc1ccccc1`: the inhibition in series [1] is 45%.

As usually defined, the inhibition is the drop in the measured response relative to a control, in per cent.
